Measurements as given in patent US9023847B2, “Azaheterocyclic compounds” (Merck Patent GmbH, priority 2009, dated 2015).

These compounds were tested against T1, P70S6K (T412E mutant, Millipore) (Homo sapiens, UniProt P23443, T412E) (assay: p70S6K enzyme assay). Details: Table 1; 3 nM P70S6K, 24 μM ATP, 90 min at 25° C.; read-out: p70S6K inhibition (IC50).
T1 construct: purchased Millipore
Type: biochemical
Procedure: P70S6K inhibitor compounds are diluted and plated in 96 well plates. A reaction mixture including the following components is then added to the compound plate to initiate the enzyme reaction; P70S6K (3 nM, T412E mutant, Millipore) is mixed with 24 μM ATP in an assay buffer containing 100 mM Hepes (pH 7.5), 5 mM MgCl2, 1 mM DTT, 0.015% Brij and 1 μM of the substrate peptide FITC-AHA-AKRRRLSSLRA-OH (derived from the S6 ribosomal protein sequence, FITC=fluorescein isothiocyanate, AHA=6-aminohexanoic acid). The reaction is incubated for 90 min at 25° C., before the addition of 10 mM EDTA to stop the reaction. The proportion of substrate and product (phosphorylated) peptide is analysed on a Caliper Life Sciences Lab Chip 3000, using a pressure of −1.4 psi, and upstream and downstream voltages of −3000 and −700 respectively. Product peaks are resolved before substrate peaks on the resulting chromatograms.

T1 sequence (P23443 whole entry T412E): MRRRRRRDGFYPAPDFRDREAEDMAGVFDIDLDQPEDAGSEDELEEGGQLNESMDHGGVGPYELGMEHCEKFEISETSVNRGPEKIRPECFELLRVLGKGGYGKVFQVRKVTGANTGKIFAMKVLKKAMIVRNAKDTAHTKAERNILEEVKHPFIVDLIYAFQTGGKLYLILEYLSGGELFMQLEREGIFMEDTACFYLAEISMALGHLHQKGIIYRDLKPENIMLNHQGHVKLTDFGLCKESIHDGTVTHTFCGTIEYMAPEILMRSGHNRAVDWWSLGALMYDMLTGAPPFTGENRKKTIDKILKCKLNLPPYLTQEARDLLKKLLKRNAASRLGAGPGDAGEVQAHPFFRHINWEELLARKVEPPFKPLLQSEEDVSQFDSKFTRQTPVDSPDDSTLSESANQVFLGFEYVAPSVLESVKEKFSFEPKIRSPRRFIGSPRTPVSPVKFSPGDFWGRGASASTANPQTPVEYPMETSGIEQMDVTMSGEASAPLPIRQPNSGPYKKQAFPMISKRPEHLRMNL

| IC50 [nM] | Compound |
| --- | --- |
| < 100 | Cc1ccccc1CCNC(=O)c1sccc1Nc1ncnc2[nH]ccc12 [Example 147, 3-(7H-Pyrrolo[2,3-d]pyrimidin-4-ylamino)-thiophene-2-carboxylic acid [2-o-tolyl-ethyl)-amide] |

Same assay, conditions: class symbol; 3 nM P70S6K, 24 μM ATP; read-out: IC50 (p70S6K)

| IC50 [nM] | Compound |
| --- | --- |
| < 100 | COc1ccccc1CNCCNC(=O)c1sccc1Nc1ccnc2[nH]ccc12 [Example 60, 3-(1H-Pyrrolo[2,3-b]pyridin-4-ylamino)-thiophene-2-carboxylic acid [2-(2-methoxy-benzylamino)-ethyl]-amide] |
| < 100 | O=C(NCCNCc1ccccc1)c1ccsc1Nc1ccnc2[nH]ccc12 [Example 72, 2-(1H-Pyrrolo[2,3-b]pyridin-4-ylamino)-thiophene-3-carboxylic acid (2-benzylamino-ethyl)-amide] |
| < 100 | COc1ccccc1C(CN)NC(=O)c1sccc1Nc1ccnc2[nH]ccc12 (stereo not drawn) [Example 107, 3-(1H-Pyrrolo[2,3-b]pyridin-4-ylamino)-thiophene-2-carboxylic acid [2-amino-1-(2-methoxy-phenyl)-ethyl]-amide] |
| 100 to 1000 | CC(C)(C)OC(=O)N1CCCC(NC(=O)c2sccc2Nc2ncnc3[nH]ccc23)C1 (stereo not drawn) [Example 184, 3-{[3-(7H-Pyrrolo[2,3-d]pyrimidin-4-ylamino)-thiophene-2-carbonyl]-amino}-piperidine-1-carboxylic acid tert-butyl ester] |
| < 100 | NCC(NC(=O)c1ccsc1Nc1ccnc2[nH]ccc12)c1cccc(Cl)c1 (stereo not drawn) [Example 130, 2-(1H-Pyrrolo[2,3-b]pyridin-4-ylamino)-thiophene-3-carboxylic acid [2-amino-1-(3-chloro-phenyl)-ethyl]-amide] |
| < 100 | O=C(NCCNCc1ccc2[nH]ccc2c1)c1sccc1Nc1ccnc2[nH]ccc12 [Example 59, 3-(1H-Pyrrolo[2,3-b]pyridin-4-ylamino)-thiophene-2-carboxylic acid {2-[(1H-indol-5-ylmethyl)-amino]-ethyl}-amide] |
| < 100 | N#CC[C@@H](NC(=O)c1sccc1Nc1ccnc2[nH]ccc12)c1ccccc1 [Example 115, 3-(1H-Pyrrolo[2,3-b]pyridin-4-ylamino)-thiophene-2-carboxylic acid ((R)-2-cyano-1-phenyl-ethyl)-amide] |
| < 100 | NC[C@@H](NC(=O)c1sccc1Nc1ccnc2[nH]ccc12)c1cccc(Cl)c1 (stereo in doubt) [Example 124, 3-(1H-Pyrrolo[2,3-b]pyridin-4-ylamino)-thiophene-2-carboxylic acid [2-amino-1-(3-chloro-phenyl)-ethyl]-amide] |
| < 100 | O=C(NCCc1cccc(C(F)(F)F)c1)c1sccc1Nc1ccnc2[nH]ccc12 [Example 18, 3-(1H-Pyrrolo[2,3-b]pyridin-4-ylamino)-thiophene-2-carboxylic acid [2-(3-trifluoromethyl-phenyl)-ethyl]-amide] |
| < 100 | O=C(NCCNCc1ccc(C(F)(F)F)cc1)c1sccc1Nc1ccnc2[nH]ccc12 [Example 52, 3-(1H-Pyrrolo[2,3-b]pyridin-4-ylamino)-thiophene-2-carboxylic acid [2-(4-trifluoromethyl-benzylamino)-ethyl]-amide] |
| < 100 | O=C(N[C@H](CO)Cc1ccccc1)c1ccsc1Nc1ccnc2[nH]ccc12 [Example 118, 2-(1H-Pyrrolo[2,3-b]pyridin-4-ylamino)-thiophene-3-carboxylic acid ((S)-1-hydroxymethyl-2-phenyl-ethyl)-amide] |
| 100 to 1000 | CC(C)(C)OC(=O)N1CCC(NC(=O)c2sccc2Nc2ccnc3[nH]ccc23)C1 (stereo not drawn) [Example 5, 3-{[3-(1H-Pyrrolo[2,3-b]pyridin-4-ylamino)-thiophene-2-carbonyl]-amino}-pyrrolidine-1-carboxylic acid tert-butyl ester] |
| 100 to 1000 | Cc1cc(Nc2ccnc3[nH]ccc23)c(C(=O)N[C@H](CO)c2ccccc2)s1 [Example 80, 5-Methyl-3-(1H-pyrrolo[2,3-b]pyridin-4-ylamino)-thiophene-2-carboxylicacid ((S)-2-hydroxy-1-phenyl-ethyl)-amide] |
| < 100 | O=C(NCc1ccc(Cl)c(C(F)(F)F)c1)c1sccc1Nc1ccnc2[nH]ccc12 [Example 98, 3-(1H-Pyrrolo[2,3-b]pyridin-4-ylamino)-thiophene-2-carboxylic acid 4-chloro-3-trifluoromethyl-benzylamide] |
| 100 to 1000 | CC(=O)N(CCNC(=O)c1sccc1Nc1ccnc2[nH]ccc12)Cc1ccccc1 [Example 45, 3-(1H-Pyrrolo[2,3-b]pyridin-4-ylamino)-thiophene-2-carboxylic acid [2-(acetyl-benzyl-amino)-ethyl]-amide] |
| < 100 | O=C(Nc1cccc(CNC(=O)c2sccc2Nc2ccnc3[nH]ccc23)c1)c1ccc(F)cc1 [Example 100, 3-(1H-Pyrrolo[2,3-b]pyridin-4-ylamino)-thiophene-2-carboxylic acid 3-(4-fluoro-benzoylamino)-benzylamide] |

| IC50 [nM] | Compound |
| --- | --- |
| 100 to 1000 | COc1cc(CNC(=O)c2sccc2Nc2ccnc3[nH]ccc23)cc(OC)c1 [Example 95, 3-(1H-Pyrrolo[2,3-b]pyridin-4-ylamino)-thiophene-2-carboxylic acid 3,5-dimethoxy-benzylamide] |
| < 100 | Cc1ccc(C(CN)NC(=O)c2ccsc2Nc2ccnc3[nH]ccc23)cc1 (stereo not drawn) [Example 126, 2-(1H-Pyrrolo[2,3-b]pyridin-4-ylamino)-thiophene-3-carboxylic acid (2-amino-1-p-tolyl-ethyl)-amide] |
| < 100 | [N-]=[N+]=NCC(NC(=O)c1sccc1Nc1ccnc2[nH]ccc12)c1ccccc1 (stereo not drawn) [Example 76, 3-(1H-Pyrrolo[2,3-b]pyridin-4-ylamino)-thiophene-2-carboxylic acid (2-azido-1-phenyl-ethyl)-amide] |
| < 100 | NCC(NC(=O)c1ccsc1Nc1ccnc2[nH]ccc12)c1ccc(C(F)(F)F)cc1 (stereo not drawn) [Example 133, 2-(1H-Pyrrolo[2,3-b]pyridin-4-ylamino)-thiophene-3-carboxylic acid [2-amino-1-(4-trifluoromethyl-phenyl)-ethyl]-amide] |
| < 100 | COc1ccc(C(CN)NC(=O)c2ccsc2Nc2ccnc3[nH]ccc23)cc1OC (stereo not drawn) [Example 110, 2-(1H-Pyrrolo[2,3-b]pyridin-4-ylamino)-thiophene-3-carboxylic acid [2-amino-1-(3,4-dimethoxy-phenyl)-ethyl]-amide] |
| 100 to 1000 | O=C(CNC(=O)c1sccc1Nc1ccnc2[nH]ccc12)NCc1ccccc1 [Example 73, 3-(1H-Pyrrolo[2,3-b]pyridin-4-ylamino)-thiophene-2-carboxylic acid (benzylcarbamoyl-methyl)-amide] |
| < 100 | O=C(Nc1cccc(CNC(=O)c2sccc2Nc2ccnc3[nH]ccc23)c1)c1ccnc(Cl)c1 [Example 129, 2-Chloro-N-[3-({[3-(1H-pyrrolo[2,3-b]pyridin-4-ylamino)-thiophene-2-carbonyl]-amino}-methyl)-phenyl]-isonicotinamide] |
| 100 to 1000 | COc1ccccc1C(CN(C)C)NC(=O)c1sccc1Nc1ccnc2[nH]ccc12 (stereo not drawn) [Example 158, 3-(1H-Pyrrolo[2,3-b]pyridin-4-ylamino)-thiophene-2-carboxylic acid [2-dimethylamino-1-(2-methoxy-phenyl)-ethyl]-amide] |
| < 100 | O=C(NCc1cccc(Cl)c1)c1sccc1Nc1ncnc2[nH]ccc12 [Example 173, 3-(7H-Pyrrolo[2,3-d]pyrimidin-4-ylamino)-thiophene-2-carboxylic acid 3-chloro-benzylamide] |
| < 100 | O=C(NCCc1ccc(Br)cc1)c1sccc1Nc1ncnc2[nH]ccc12 [Example 180, 3-(7H-Pyrrolo[2,3-d]pyrimidin-4-ylamino)-thiophene-2-carboxylic acid [2-(4-bromo-phenyl)-ethyl]-amide] |
| < 100 | COc1cccc(CNCCNC(=O)c2sccc2Nc2ccnc3[nH]ccc23)c1 [Example 49, 3-(1H-Pyrrolo[2,3-b]pyridin-4-ylamino)-thiophene-2-carboxylic acid [2-(3-methoxy-benzylamino)-ethyl]-amide] |
| < 100 | Cc1ccc([C@@H](CN)NC(=O)c2sccc2Nc2ccnc3[nH]ccc23)cc1 (stereo in doubt) [Example 122, 3-(1H-Pyrrolo[2,3-b]pyridin-4-ylamino)-thiophene-2-carboxylic acid (2-amino-1-p-tolyl-ethyl)-amide] |
| 1000 to 10000 | O=C(N[C@@H](CO)c1ccccc1)c1sccc1Nc1ccnc2[nH]ccc12 [Example 43, R-[3-(1H-Pyrrolo[2,3-b]pyridin-4-ylamino)-thiophene-2-carboxylic acid (2-hydroxy-1-phenyl-ethyl)-amide]] |
| < 100 | CN(C)CC(NC(=O)c1sccc1Nc1ccnc2[nH]ccc12)c1cccc(Cl)c1 (stereo not drawn) [Example 159, 3-(1H-Pyrrolo[2,3-b]pyridin-4-ylamino)-thiophene-2-carboxylic acid [1-(3-chloro-phenyl)-2-dimethylamino-ethyl]-amide] |
| < 100 | O=C(NC1CCCNC1)c1ccsc1Nc1ccnc2[nH]ccc12 (stereo not drawn) [Example 105, 2-(1H-Pyrrolo[2,3-b]pyridin-4-ylamino)-thiophene-3-carboxylic acid piperidin-3-ylamide] |
| 100 to 1000 | COC(=O)CNC(=O)c1sccc1Nc1ccnc2[nH]ccc12 [Example 138, {[3-(1H-Pyrrolo[2,3-b]pyridin-4-ylamino)-thiophene-2-carbonyl]-amino}-acetic acid methyl ester] |
